The record followed here is patent EP0387830A2, “The anthracycline substances, microorganisms producing the same and a process for preparing the substances” (YAMANOUCHI PHARMACEUTICAL CO. LTD., priority 1989, dated 1990).

A word on the T/C: it is the ratio of treated to control.

SMILES strings stand for the structures. In brackets after ≈: the same amount, converted by molar mass.

One series concerns P 388. Nature of the series: Cytotoxicity on tumor cells in vitro (trypan blue exclusion, cell growth inhibition). The conditions noted are these: tartrates dissolved in saline, 1 x 10⁵ cells/mℓ, 37 °C for 3 days, RPMI-1640 + 5 % fetus calf serum + 5 µM 2-hydroxyethyldisulfide; for IC50: Mus musculus, P388, 72 h, read-out: IC₅₀ P388. It counts as cell-based. Here is the method: (§1) To each 1 mℓ of L 1210* and P 388** culture medium in a concentration of 1 x 10⁵ cells/mℓ, 4 µℓ of each solution of the tartrates of the anthracycline compounds according to the present invention which was dissolved in saline in different concentrations was added respectively and incubated at 37 °C for 3 days in a CO₂ incubator. Then, numbers of surviving cells were counted by trypan blue exclusion. The cytotoxic activity was determined by calculating the cell growth inhibitory ratio of the numbers of surviving cells to numbers of cells of a control to which no compound was added in the different concentrations and by plotting them on a graph. Note : Medium used: * : RPMI-1640 + 10 % new born calf serum **: RPMI-1640 + 5 % fetus calf serum + 5 µM 2-hydroxyethyldisulfide

Series [1] concerns P388 adriamycin resistant cell. Described as above. The format is cell-based. The conditions noted are these: Mus musculus, P388, 72 h, tartrates dissolved in saline; 37 °C for 3 days; read-out: IC₅₀ P388 adriamycin resistant cell. Here is the method: as §1
Series [2] is described as follows: Solubility in solvents (physicochemical properties).
The test system of a further series is L 1210. Briefly: Cytotoxicity on tumor cells in vitro (trypan blue exclusion, cell growth inhibition). It counts as cell-based. As to conditions: tartrates dissolved in saline, 1 x 10⁵ cells/mℓ, 37 °C for 3 days, RPMI-1640 + 10 % new born calf serum. As for the experimental part:
as §1

For the next series, the system named is P-388 tumor cells. Briefly: Antitumor activity to P388 on animal (prolongation of life). As to conditions: for Median survival days: BDFI/SLC male mice, control 13.0; for T/C: ratio of median survival days to control; for Survival rate (after 22 days): survivors - animals in group.

`COc1cccc2c1C(=O)c1c(cc3c(c1O)C(OC1OC(C)C(OC)C(O)C1OC)CC(C)(OC(C)=O)C3OC1OC(C)C(N(C)C)C(C)(O)C1O)C2=O` (stereo not drawn) [YL-01641P-C₁]: the IC50 with P 388 was determined as 0.18 µg/mL; in series [1], 0.33 µg/mL (≈ 0.426 µM). Also, the Solubility in solvents result was “insoluble” in series [2] (in hexane); “soluble” in series [2] (in methanol, ethanol, acetone, ethylacetate, benzene, toluene and chloroform); “difficult to be dissolved” in series [2] (in water).

Turning to `COc1cccc2c1C(=O)c1c(O)c3c(c(O)c1C2=O)C[C@@](O)(C(=O)CO)C[C@@H]3O[C@H]1C[C@H](N)[C@H](O)[C@H](C)O1` [adriamycin], in the series on P 388, the IC50 worked out at 0.03 µg/mL and the “IC₅₀ P388” value turned out to be 0.023 µg/mL. For the same compound, the IC50 with L 1210 (Mus musculus, L1210, 72 h, read-out: IC₅₀ L1210) came out at 0.087 µg/mL. Moreover, the “IC₅₀ L1210” value with L 1210 amounted to 0.090 µg/mL.

As to `CO[C@@]12[C@H](COC(N)=O)C3=C(C(=O)C(C)=C(N)C3=O)N1C[C@@H]1N[C@@H]12` [mitomycin C], in the series with P-388 tumor cells (0.50 × 5 mg/kg), the Median survival days stood at 22.0 days, the T/C came to 169% and the “Survival rate (after 22 days)” value was 2 - 8. In the series with P-388 tumor cells (1.0 × 5 mg/kg), the Median survival days is above 22.0 days, the T/C is above 169% and the “Survival rate (after 22 days)” value was 8 - 8.
